Data taken from PubChem BioAssay AID248 (DTP/NCI, 2004).
Where “and” joins values, the source holds several entries; their conditions need not be identical. Equal values may be shown once. Toxic doses and inconclusive results are not listed. No stated cut-off is given here; in the data, active means T/C of 150% or more; inactive means T/C below 125%.

System: L1210 leukemia ip in BDF1 mice, survival T/C
Assay: NCI In Vivo Anticancer Drug Screen. Data for tumor model L1210 Leukemia (intraperitoneal) in B6D2F1 (BDF1) mice
Details: endpoint: mean survival time, higher = longer survival
Outline: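 Ratio derived from survival: compound-dosed mice over vehicle-dosed mice, all bearing a transplantable tumor.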

[1] = dose: 100.0 mg/kg/injection, schedule: Q04DX003 (ip), vehicle: saline

Measured: T/C

CSC(=NC#N)SC
inactive: dose: 1.5 mg/kg/injection, schedule: Q01DX009 (ip), vehicle: Klucel (hydroxypropylcellulose) (HPC) 100 % of control | dose: 1.5 mg/kg/injection, schedule: Q04DX003 (ip), vehicle: Klucel (hydroxypropylcellulose) (HPC) 100 % of control | dose: 3.0 mg/kg/injection, schedule: Q01DX009 (ip), vehicle: Klucel (hydroxypropylcellulose) (HPC) 101 % of control | dose: 3.0 mg/kg/injection, schedule: Q04DX003 (ip), vehicle: Klucel (hydroxypropylcellulose) (HPC) 90 % of control | dose: 6.0 mg/kg/injection, schedule: Q01DX009 (ip), vehicle: Klucel (hydroxypropylcellulose) (HPC) 95 % of control | dose: 6.0 mg/kg/injection, schedule: Q04DX003 (ip), vehicle: Klucel (hydroxypropylcellulose) (HPC) 97 % of control

Cc1c[n+]([O-])ccc1[N+](=O)[O-]
inactive: dose: 25.0 mg/kg/injection, schedule: Q01DX009 (ip), vehicle: saline 90 % of control | dose: 25.0 mg/kg/injection, schedule: Q04DX003 (ip), vehicle: saline 105 % of control | dose: 50.0 mg/kg/injection, schedule: Q01DX009 (ip), vehicle: saline 90 % of control | dose: 50.0 mg/kg/injection, schedule: Q04DX003 (ip), vehicle: saline 97 % of control | dose: 100.0 mg/kg/injection, schedule: Q01DX009 (ip), vehicle: saline 88 % of control | [1] 90 % of control and 91 % of control

O=C1C(O)=C(Cl)C(=O)C(O)=C1Cl
inactive: dose: 100.0 mg/kg/injection, schedule: Q01DX009 (ip), vehicle: saline with Tween-80 106 % of control | [1] 114 % of control | dose: 200.0 mg/kg/injection, schedule: Q01DX009 (ip), vehicle: saline with Tween-80 95 % of control | dose: 200.0 mg/kg/injection, schedule: Q04DX003 (ip), vehicle: saline 120 % of control | dose: 400.0 mg/kg/injection, schedule: Q04DX003 (ip), vehicle: saline 116 % of control

COc1ccccc1NC(=O)O/N=C/c1ccccn1
inactive: dose: 100.0 mg/kg/injection, schedule: Q04DX003 (ip), vehicle: other 99 % of control | dose: 200.0 mg/kg/injection, schedule: Q04DX003 (ip), vehicle: other 90 % of control | dose: 400.0 mg/kg/injection, schedule: Q04DX003 (ip), vehicle: other 103 % of control

O=C(CC1NCCCC1O)Cn1cnc2cc3c(cc2c1=O)OCO3 (stereo not given)
inactive: dose: 5.0 mg/kg/injection, schedule: Q01DX009 (ip), vehicle: saline 117 % of control | dose: 5.0 mg/kg/injection, schedule: Q04DX003 (ip), vehicle: saline 105 % of control | dose: 10.0 mg/kg/injection, schedule: Q01DX009 (ip), vehicle: saline 122 % of control | dose: 10.0 mg/kg/injection, schedule: Q04DX003 (ip), vehicle: saline 105 % of control | dose: 20.0 mg/kg/injection, schedule: Q01DX009 (ip), vehicle: saline 95 % of control | dose: 20.0 mg/kg/injection, schedule: Q04DX003 (ip), vehicle: saline 117 % of control

CCCCCCC/C=N\N=C(N)N
inactive: dose: 15.0 mg/kg/injection, schedule: Q01DX Z (ip), vehicle: carboxymethylcellulose (CMC) 97 % of control | dose: 30.0 mg/kg/injection, schedule: Q01DX Z (ip), vehicle: carboxymethylcellulose (CMC) 97 % of control | dose: 60.0 mg/kg/injection, schedule: Q01DX Z (ip), vehicle: carboxymethylcellulose (CMC) 101 % of control

COc1cc([N+](=O)[O-])c2nc(/C=N/NC(N)=S)ccc2c1[N+](=O)[O-]
inactive: dose: 200.0 mg/kg/injection, schedule: Q01DX001 (ip), vehicle: saline 86 % of control

BrC1=C(Br)C(Br)(Br)C(Br)=C1Br
inactive: dose: 10.0 mg/kg/injection, schedule: Q01DX001 (ip), vehicle: saline 101 % of control | dose: 20.0 mg/kg/injection, schedule: Q01DX001 (ip), vehicle: saline 98 % of control

CC1CN(Cc2ccccc2)C(=S)NC1=O (stereo not given)
inactive: dose: 25.0 mg/kg/injection, schedule: Q01DX Z (ip), vehicle: methylcellulose (MC) 89 % of control | dose: 50.0 mg/kg/injection, schedule: Q01DX Z (ip), vehicle: methylcellulose (MC) 98 % of control

CC(=O)Oc1ccc(CCN(Cc2ccc3c(c2)OCO3)C(C)=O)cc1
inactive: dose: 50.0 mg/kg/injection, schedule: Q04DX002 (ip), vehicle: Klucel (hydroxypropylcellulose) (HPC) 97 % of control | dose: 100.0 mg/kg/injection, schedule: Q04DX002 (ip), vehicle: Klucel (hydroxypropylcellulose) (HPC) 91 % of control | dose: 200.0 mg/kg/injection, schedule: Q04DX002 (ip), vehicle: Klucel (hydroxypropylcellulose) (HPC) 97 % of control

N#CCCNc1cccc(Cl)c1
inactive: dose: 100.0 mg/kg/injection, schedule: Q04DX003 (ip), vehicle: Klucel (hydroxypropylcellulose) (HPC) 94 % of control | dose: 200.0 mg/kg/injection, schedule: Q04DX003 (ip), vehicle: Klucel (hydroxypropylcellulose) (HPC) 109 % of control | dose: 400.0 mg/kg/injection, schedule: Q04DX003 (ip), vehicle: Klucel (hydroxypropylcellulose) (HPC) 96 % of control
